pEC50: −log10 of the molar value.
Test system: HSV-1 strain F or KOS
Experiment: Inhibition of herpes simplex virus (HSV-1) replication in cell culture (BHK-21 cells, glycoprotein C ELISA)
Format: cell-based
Settings: Human alphaherpesvirus 1, BHK-21; Group 1 Table 1
Protocol: B) Inhibition of Herpes Simplex Virus (HSV-1) Replication in Cell Culture
Assay: BHK-21 cells clone 13 (ATCC CCL10) were incubated for two days in 850 cm^2 roller bottles (2×10^7 cells/bottle) with α-MEM medium (Gibco Canada Inc., Burlington, Ontario, Canada) supplemented with 8% (v/v) fetal bovine serum (FBS, Gibco Canada, Inc.). The cells were trypsinized and then 3,000 cells in 100 μL of fresh medium were transferred into each well of a 96-well microtiter plate. The cells were incubated at 37° for a period of 3 days to reach a density of 50,000 cells per well. The cells were washed twice with 100 μL of α-MEM supplemented with 2% heat inactivated FBS and incubated for 1-2 hours in 100 μL of the same medium.
Thereafter, the cells were infected with HSV-1 strain F or KOS (multiplicity of infection=0.05 PFU/cell) in 50 μL of α-MEM supplemented with 2% heat inactivated FBS. Following one hour of virus absorption at 37°, the medium was removed and the cells were washed with α-MEM supplemented with 2% heat inactivated FBS (2×100 μL). The cells were incubated with or without 100 μL of the appropriate concentration of test reagent in α-MEM medium supplemented with 2% heat inactivated FBS. After 24 hours of incubation at 37°, the extent of viral replication was determined by an ELISA assay; for instance, the following assay that detects the late glycoprotein C of HSV-1.
Cells were fixed in the microtiter plate with 100 μL of 0.063% glutaraldehyde in phosphate buffered saline for 30 min at room temperature. The microtiter plate was then washed once with casein blocking solution and blocked with 200 μL of the same solution for one hour at room temperature. Thereafter, 100 μL of mAb C11 recognizing the glycoprotein C of HSV-1 (see E. Trybala et al., Journal of General Virology, 1994, 75, 743) was added to each well for two hours at room temperature. The plate was washed three times with phosphate buffered saline containing 0.05% polyoxyethylene (20) sorbitan monooleate. The cells were incubated with 100 μL of sheep anti-mouse IgG horseradish peroxidase for one hour at room temperature in the dark.
The plate was washed three times with 200 μL of the above-noted phosphate buffer saline preparation, and then once with 0.1 M sodium citrate (pH 4.5). Thereafter, 100 μL of orthophenylenediamine dihydrochloride (OPD, Gibco, Canada Inc.) was added to each well. The plate was agitated on a microplate shaker for 30 min in the dark. Color development was monitored at 450 nm using a microplate spectrophotometer.
SAS was used to calculate % inhibition of viral replication and to generate EC50 values.

Compound: Nc1nc(-c2ccc(NC(=O)CN(CCc3ccccc3)C(=O)c3cccnc3)cc2)cs1 [Example 67]
- pEC50: 6.68
